Source: patent publication US6365550B1, “Flufenacet-based herbicidal compositions” (Bayer Aktiengesellschaft, priority 1999, dated 2002)

Assays:
Assay in all cases: Post-emergence test/greenhouse
Assay type in all cases: in vivo
Settings in all cases: scored after three weeks vs untreated control
Alopercurus myosuroides = system: Alopercurus myosuroides
Protocol: (§1) Commercial formulations of the active compounds involved were used. The active compound concentrations required for the experiments were prepared by dilution with water.
(§2) Test plants which have a height of 5 to 15 cm are sprayed with the active compound preparation in such a way that the amounts of active compound desired in each case are applied per unit area. The concentration of the spray mixture is chosen in such a way that the amounts of active compound desired in each case are applied in 500 l water/ha.
(§3) After three weeks, the degree of damage to the plants is scored in % damage in comparison with the development of the untreated control.
(§4) The figures denote the following:
(§5) 0%=no action (like untreated control)

Apera spica-venti = system: Apera spica-venti
Protocol: as §1, §2, §3, §4, §5

Chenopodium album = system: Chenopodium album
Protocol: as §1, §2, §3, §4, §5

Echinochloa crus-galli = system: Echinochloa crus-galli
Protocol: as §1, §2, §3, §4, §5

CC(C)N(C(=O)COc1nnc(C(F)(F)F)s1)c1ccc(F)cc1 [(I), N-(4fluoro-phenyl)-N-(i-propyl)-2-(5-trifluoromethyl-1,3,4-thiadiazol-2-yl-oxy)-acetamide]
% damage Alopercurus myosuroides (Alopercurus myosuroides; application rate 60 g a.i./ha): 60% | % damage Apera spica-venti (Apera spica-venti; application rate 60 g a.i./ha): 60% | % damage Chenopodium album (Chenopodium album; application rate 60 g a.i./ha): 0% | % damage Echinochloa crus-galli (Echinochloa crus-galli; application rate 60 g a.i./ha): 60%

CC(C)N.O=C(O)CNCP(=O)(O)O [(II-1), N-phosphonomethyl-glycine i-propyl-ammonium salt]
% damage Alopercurus myosuroides (Alopercurus myosuroides; application rate 30 g a.i./ha): 0% | % damage Apera spica-venti (Apera spica-venti; application rate 30 g a.i./ha): 0% | % damage Chenopodium album (Chenopodium album; application rate 30 g a.i./ha): 0% | % damage Echinochloa crus-galli (Echinochloa crus-galli; application rate 30 g a.i./ha): 0%
